Columns and labels:
Format in all cases: in vivo
Set-up in all cases: key: compounds were considered to be active when, at a concentration of 500 ppm or less, they had an activity on the harmful organisms of 50% or more
Heliothis virescens [1] = assay: Example B: tobacco budworm eggs on filter paper/insect diet, mortality; conditions: 500 ppm or less; 24-hour-old eggs dipped, diet treated; after 6 days
[2] = tested on: Diabrotica undecimpunctata; assay: Example C: corn rootworm eggs with maize corn, mortality; conditions: 500 ppm or less; 4-5-day-old eggs; after 6 days
Spodoptera littoralis = assay: Example G: treated L2 larvae and insect diet, Egyptian cotton leafworm mortality; conditions: 500 ppm or less, after 6 days
Description: A Petri dish whose bottom was covered with filter paper and which contained about 5 ml of insect diet is prepared. Five L2 larvae of the Egyptian cotton leafworm (Spodoptera littoralis) were counted into a small beaker. 200 μl of an aqueous solution of the formulated preparation to be examined were pipetted into the beaker. The treated larvae were then poured into the Petri dish, and a further 200 μl of the aqueous solution were distributed over the insect diet. The Petri dish was closed and then stored at about 25° C. in a climatized chamber. After 6 days of storage, the effect of the compound on the larvae was determined (mortality). The compounds of the following examples were active: 29, 70, 60, 159, 1005, 1040, 1042, 1044, 1045, 1046, 1047.

Ctenocephalides felis = assay: Example M: cat fleas fed with treated cattle blood, mortality; conditions: 500 ppm or less; adult fleas fed blood-preparation mixture; after 48 hours
Description: The formulated compound was mixed with defibrinated cattle blood. 10 adult cat fleas (Ctenocephalides felis) were fed with this blood-preparation mixture. After 48 hours at about 38° C., the effect of the compound on the fleas was determined (mortality). The compounds of the following examples were active: 70, 1002, 1004, 1005, 1036, 60, 197, 1057.

Plutella maculipennis [3] = assay: Example P: dipped cabbage leaf, diamondback moth larvae; conditions: 500 ppm or less, after 3 days
Description: A cabbage leaf was dipped for about 5 seconds into an aqueous solution of the formulated compound to be examined. After drying, the cabbage leaf treated in this manner was transferred into a container and populated with 10 larvae of the diamondback moth (Plutella maculipennis). The container was then closed with a lid. After 3 days of storage at about 23° C., the effect of the compound on the larvae was determined. The following examples were active: 1036, 70, 60, 209.

Heliothis virescens [4] = assay: Example V: dipped freeze-dried diet cube, tobacco budworm L2 larvae mortality; conditions: 500 ppm or less, after 4 days
Description: Insect diet (as freeze-dried cube) was dipped into an aqueous solution of the formulated compound to be examined and then placed into a Petri dish. 10 L2 larvae of the American tobacco budworm (Heliothis virescens) were then added. The Petri dish was then closed with a lid. After 4 days of storage at about 23° C., the mortality among the larvae was determined. The following examples were active: 1036, 60.

Plutella maculipennis [5] = assay: Example W: cabbage plant, root-systemic activity on diamondback moth larvae; conditions: 500 ppm or less; cabbage plant in treated water, populated after one week; after 3 days
Description: 2.4 ml of an aqueous solution of the formulated compound to be examined were pipetted into a bottle filled with 21.6 ml of water. A 14-day-old cabbage plant was transferred into the bottle. After one week, the plant was populated with 5 larvae of the diamondback moth (Plutella maculipennis). Plants and animals were then stored in a climatized chamber (23° C., 40–60% relative atmospheric humidity). After 3 days of storage, the root-systemic activity of the compound on the larvae was determined (mortality). The following examples were active: 1036, 70, 60.

Spodoptera exigua = assay: Example Y: cotton plants sprayed, cut leaves, sugar beet armyworm mortality; conditions: 500 ppm or less, leaves cut after drying, L2 larvae, after 4 days
Description: Cotton plants were sprayed with an aqueous solution of the formulated compound to be examined. After drying, leaves were cut off, placed into a Petri dish and populated with 5 L2 larvae of the sugar beet armyworm (Spodoptera exigua). After 4 days of storage at about 23° C., the mortality among the larvae was determined. The following examples were active: 1036, 70, 60, 1047, 197.

[6] = tested on: Diabrotica undecimpunctata; assay: Example AC: treated soil, southern corn rootworm eggs mortality; conditions: 500 ppm or less, eggs added after 0d, 21d and 42d, after 2 weeks
Description: An aqueous solution of the formulated compound to be examined was mixed with soil. After 0d, 21d and 42d, eggs of the southern corn rootworm (Diabrotica undecimpunctata) were placed together with 2 pre-swollen maize corns into a dish, covered with the treated soil and moisted with 10 ml of water. Soil and eggs were placed in a greenhouse (23° C., 60% relative atmosphere humidity). After 2 weeks of storage, the effect of the compound on the eggs and any larvae hatched therefrom was determined (mortality). The following examples were active: 70, 60, 197, 204.

Heliothis virescens [7] = assay: Example AH: sprayed cotton leaves, antifeeding activity on tobacco budworm larvae; conditions: 500 ppm or less, L2 larvae, after 2, 3 and 4 days
Description: Cotton leaves were placed into a Petri dish, sprayed with an aqueous solution of the formulated compound to be examined and, after drying, populated with 5 L2 larvae of the American tobacco budworm (Heliothis virescens). After 2, 3 and 4 days of storage at about 25° C., the antifeeding activity of the compound on the larvae was determined. The following examples were active: 1036, 70, 60.

CC1CCN(CC#Cc2cc(C(F)(F)F)cc(C(F)(F)F)n2)CC1 [Example 60]
active: effect on the eggs and hatched larvae (mortality) (Heliothis virescens [1]) | effect on the eggs and hatched larvae (mortality) [2] | effect on the larvae (mortality) (Spodoptera littoralis) | effect on the fleas (mortality) (Ctenocephalides felis) | effect on the larvae (Plutella maculipennis [3]) | mortality among the larvae (Heliothis virescens [4]) | root-systemic activity on the larvae (mortality) (Plutella maculipennis [5]) | mortality among the larvae (Spodoptera exigua) | effect on the eggs and hatched larvae (mortality) [6] | antifeeding activity on the larvae (Heliothis virescens [7])
